# From patent US12522602B2, “Derivatives having 2,3-dihydro-1H-indene or 2,3-dihydrobenzofuran moiety or pharmaceutically acceptable salt thereof and pharmaceutical compositions comprising the same” (YUHAN CORPORATION, priority 2019, dated 2026)
# Test system: GM1 production in Jurkat cells
# Assay: cells
# Type: cell-based
# Details: Homo sapiens, Jurkat, 72 h
row,Structure (SMILES),IC50 [nM]
1,"O=C(NC1CCc2cc(-c3ccc(F)cc3)ccc21)O[C@@H]1CN2CCC1CC2 (stereo partly drawn) [Example 1, (S)-quinuclidin-3-yl (5-(4-fluorophenyl)-2,3-dihydro-1H-inden-1-yl)carbamate]",139
2,"O=C(NC1CCc2cc(-c3ccc(Cl)cc3)ccc21)O[C@@H]1CN2CCC1CC2 (stereo partly drawn) [Example 2, (S)-quinuclidin-3-yl (5-(4-chlorophenyl)-2,3-dihydro-1H-inden-1-yl)carbamate]",202
3,"O=C(NC1CCc2cc(-c3ccc(C(F)(F)F)cc3)ccc21)O[C@@H]1CN2CCC1CC2 (stereo partly drawn) [Example 3, (S)-quinuclidin-3-yl (5-(4-(trifluoromethyl)phenyl)-2,3-dihydro-1H-inden-1-yl)carbamate]",142
4,"O=C(NC1CCc2cc(-c3ccc(OC(F)(F)F)cc3)ccc21)O[C@@H]1CN2CCC1CC2 (stereo partly drawn) [Example 4, (S)-quinuclidin-3-yl (5-(4-(trifluoromethoxy)phenyl)-2,3-dihydro-1H-inden-1-yl)carbamate]",95.8
5,"O=C(NC1CCc2cc(-c3cccc(F)c3)ccc21)O[C@@H]1CN2CCC1CC2 (stereo partly drawn) [Example 5, (S)-quinuclidin-3-yl (5-(3-fluorophenyl)-2,3-dihydro-1H-inden-1-yl)carbamate]",70.2
6,"O=C(NC1CCc2cc(-c3cccc(Cl)c3)ccc21)O[C@@H]1CN2CCC1CC2 (stereo partly drawn) [Example 6, (S)-quinuclidin-3-yl (5-(3-chlorophenyl)-2,3-dihydro-1H-inden-1-yl)carbamate]",39.4
7,"O=C(NC1CCc2cc(-c3cccc(C(F)(F)F)c3)ccc21)O[C@@H]1CN2CCC1CC2 (stereo partly drawn) [Example 7, (S)-quinuclidin-3-yl (5-(3-(trifluoromethyl)phenyl)-2,3-dihydro-1H-inden-1-yl)carbamate]",36.8
8,"O=C(NC1CCc2cc(-c3cccc(OC(F)(F)F)c3)ccc21)O[C@@H]1CN2CCC1CC2 (stereo partly drawn) [Example 8, (S)-quinuclidin-3-yl (5-(3-(trifluoromethoxy)phenyl)-2,3-dihydro-1H-inden-1-yl)carbamate]",27.4
9,"O=C(NC1CCc2cc(-c3ccccc3F)ccc21)O[C@@H]1CN2CCC1CC2 (stereo partly drawn) [Example 9, (S)-quinuclidin-3-yl (5-(2-fluorophenyl)-2,3-dihydro-1H-inden-1-yl)carbamate]",93.1
10,"O=C(NC1CCc2cc(-c3ccccc3Cl)ccc21)O[C@@H]1CN2CCC1CC2 (stereo partly drawn) [Example 10, (S)-quinuclidin-3-yl (5-(2-chlorophenyl)-2,3-dihydro-1H-inden-1-yl)carbamate]",65.5
11,"O=C(NC1CCc2cc(-c3ccccc3C(F)(F)F)ccc21)O[C@@H]1CN2CCC1CC2 (stereo partly drawn) [Example 11, (S)-quinuclidin-3-yl (5-(2-(trifluoromethyl)phenyl)-2,3-dihydro-1H-inden-1-yl)carbamate]",123
12,"O=C(NC1CCc2cc(-c3ccccc3OC(F)(F)F)ccc21)O[C@@H]1CN2CCC1CC2 (stereo partly drawn) [Example 12, (S)-quinuclidin-3-yl (5-(2-(trifluoromethoxy)phenyl)-2,3-dihydro-1H-inden-1-yl)carbamate]",73
13,"Cc1ccc(-c2ccc3c(c2)CCC3NC(=O)O[C@@H]2CN3CCC2CC3)cc1 (stereo partly drawn) [Example 13, (S)-quinuclidin-3-yl (5-(p-tolyl)-2,3-dihydro-1H-inden-1-yl)carbamate]",41.7
14,"O=C(NC1CCc2cc(-c3ccc(OC(F)F)cc3)ccc21)O[C@@H]1CN2CCC1CC2 (stereo partly drawn) [Example 14, (S)-quinuclidin-3-yl (5-(4-(difluoromethoxy)phenyl)-2,3-dihydro-1H-inden-1-yl)carbamate]",54.3
15,"O=C(NC1CCc2cc(-c3ccc(F)c(F)c3)ccc21)O[C@@H]1CN2CCC1CC2 (stereo partly drawn) [Example 15, (S)-quinuclidin-3-yl (5-(3,4-difluorophenyl)-2,3-dihydro-1H-inden-1-yl)carbamate]",34.4
16,"O=C(NC1CCc2cc(-c3ccc(F)cc3F)ccc21)O[C@@H]1CN2CCC1CC2 (stereo partly drawn) [Example 16, (S)-quinuclidin-3-yl (5-(2,4-difluorophenyl)-2,3-dihydro-1H-inden-1-yl)carbamate]",56.1
17,"O=C(NC1CCc2cc(-c3cccc(F)c3F)ccc21)O[C@@H]1CN2CCC1CC2 (stereo partly drawn) [Example 17, (S)-quinuclidin-3-yl (5-(2,3-difluorophenyl)-2,3-dihydro-1H-inden-1-yl)carbamate]",27.6
18,"O=C(NC1CCc2cc(-c3cc(F)ccc3F)ccc21)O[C@@H]1CN2CCC1CC2 (stereo partly drawn) [Example 18, (S)-quinuclidin-3-yl (5-(2,5-difluorophenyl)-2,3-dihydro-1H-inden-1-yl)carbamate]",31.6
19,"O=C(NC1CCc2cc(-c3cc(F)cc(F)c3)ccc21)O[C@@H]1CN2CCC1CC2 (stereo partly drawn) [Example 19, (S)-quinuclidin-3-yl (5-(3,5-difluorophenyl)-2,3-dihydro-1H-inden-1-yl)carbamate]",20.3
20,"O=C(NC1CCc2cc(-c3ccc(F)c(F)c3F)ccc21)O[C@@H]1CN2CCC1CC2 (stereo partly drawn) [Example 20, (S)-quinuclidin-3-yl (5-(2,3,4-trifluorophenyl)-2,3-dihydro-1H-inden-1-yl)carbamate]",126
21,"O=C(NC1CCc2cc(-c3cc(F)c(F)cc3F)ccc21)O[C@@H]1CN2CCC1CC2 (stereo partly drawn) [Example 21, (S)-quinuclidin-3-yl (5-(2,4,5-trifluorophenyl)-2,3-dihydro-1H-inden-1-yl)carbamate]",127

row,Structure (SMILES),IC50 [nM]
1,"O=C(NC1CCc2cc(-c3cc(Cl)cc(Cl)c3)ccc21)O[C@@H]1CN2CCC1CC2 (stereo partly drawn) [Example 22, (S)-quinuclidin-3-yl (5-(3,5-dichlorophenyl)-2,3-dihydro-1H-inden-1-yl)carbamate]",89.6
2,"O=C(NC1CCc2cc(-c3ccc(Cl)c(Cl)c3)ccc21)O[C@@H]1CN2CCC1CC2 (stereo partly drawn) [Example 23, (S)-quinuclidin-3-yl (5-(3,4-dichlorophenyl)-2,3-dihydro-1H-inden-1-yl)carbamate]",63.7
3,"O=C(NC1CCc2cc(-c3cc(Cl)ccc3Cl)ccc21)O[C@@H]1CN2CCC1CC2 (stereo partly drawn) [Example 24, (S)-quinuclidin-3-yl (5-(2,5-dichlorophenyl)-2,3-dihydro-1H-inden-1-yl)carbamate]",17.4
4,"O=C(NC1CCc2ccc(-c3ccc(F)cc3)cc21)O[C@@H]1CN2CCC1CC2 (stereo partly drawn) [Example 25, (S)-quinuclidin-3-yl (6-(4-fluorophenyl)-2,3-dihydro-1H-inden-1-yl)carbamate]",106
5,"O=C(NC1CCc2ccc(-c3ccc(Cl)cc3)cc21)O[C@@H]1CN2CCC1CC2 (stereo partly drawn) [Example 26, (S)-quinuclidin-3-yl (6-(4-chlorophenyl)-2,3-dihydro-1H-inden-1-yl)carbamate]",67.2
6,"O=C(NC1CCc2ccc(-c3ccc(C(F)(F)F)cc3)cc21)O[C@@H]1CN2CCC1CC2 (stereo partly drawn) [Example 27, (S)-quinuclidin-3-yl (6-(4-(trifluoromethyl)phenyl)-2,3-dihydro-1H-inden-1-yl)carbamate]",35.7
7,"O=C(NC1CCc2ccc(-c3ccc(OC(F)(F)F)cc3)cc21)O[C@@H]1CN2CCC1CC2 (stereo partly drawn) [Example 28, (S)-quinuclidin-3-yl (6-(4-(trifluoromethoxy)phenyl)-2,3-dihydro-1H-inden-1-yl)carbamate]",52
8,"O=C(NC1CCc2ccc(-c3cccc(F)c3)cc21)O[C@@H]1CN2CCC1CC2 (stereo partly drawn) [Example 29, (S)-quinuclidin-3-yl (6-(3-fluorophenyl)-2,3-dihydro-1H-inden-1-yl)carbamate]",63
9,"O=C(NC1CCc2ccc(-c3cccc(Cl)c3)cc21)O[C@@H]1CN2CCC1CC2 (stereo partly drawn) [Example 30, (S)-quinuclidin-3-yl (6-(3-chlorophenyl)-2,3-dihydro-1H-inden-1-yl)carbamate]",107
10,"O=C(NC1CCc2ccc(-c3cccc(C(F)(F)F)c3)cc21)O[C@@H]1CN2CCC1CC2 (stereo partly drawn) [Example 31, (S)-quinuclidin-3-yl (6-(3-(trifluoromethyl)phenyl)-2,3-dihydro-1H-inden-1-yl)carbamate]",65.5
11,"O=C(NC1CCc2ccc(-c3cccc(OC(F)(F)F)c3)cc21)O[C@@H]1CN2CCC1CC2 (stereo partly drawn) [Example 32, (S)-quinuclidin-3-yl (6-(3-(trifluoromethoxy)phenyl)-2,3-dihydro-1H-inden-1-yl)carbamate]",120
12,"O=C(NC1CCc2ccc(-c3ccc(OC(F)F)cc3)cc21)O[C@@H]1CN2CCC1CC2 (stereo partly drawn) [Example 37, (S)-quinuclidin-3-yl (6-(4-(difluoromethoxy)phenyl)-2,3-dihydro-1H-inden-1-yl)carbamate]",55.2
13,"Cc1ccc(-c2ccc3c(c2)C(NC(=O)O[C@@H]2CN4CCC2CC4)CC3)cc1 (stereo partly drawn) [Example 38, (S)-quinuclidin-3-yl (6-(p-tolyl)-2,3-dihydro-1H-inden-1-yl)carbamate]",62
14,"O=C(NC1CCc2ccc(-c3ccc(F)c(F)c3)cc21)O[C@@H]1CN2CCC1CC2 (stereo partly drawn) [Example 39, (S)-quinuclidin-3-yl (6-(3,4-difluorophenyl)-2,3-dihydro-1H-inden-1-yl)carbamate]",51.9
15,"O=C(NC1CCc2ccc(-c3ccc(F)cc3F)cc21)O[C@@H]1CN2CCC1CC2 (stereo partly drawn) [Example 43, (S)-quinuclidin-3-yl (6-(2,4-difluorophenyl)-2,3-dihydro-1H-inden-1-yl)carbamate]",183
16,"O=C(NC1CCc2ccc(-c3cc(F)c(F)cc3F)cc21)O[C@@H]1CN2CCC1CC2 (stereo partly drawn) [Example 44, (S)-quinuclidin-3-yl (6-(2,4,5-trifluorophenyl)-2,3-dihydro-1H-inden-1-yl)carbamate]",35.2
17,"O=C(NC1CCc2ccc(-c3ccc(F)c(F)c3F)cc21)O[C@@H]1CN2CCC1CC2 (stereo partly drawn) [Example 45, (S)-quinuclidin-3-yl (6-(2,3,4-trifluorophenyl)-2,3-dihydro-1H-inden-1-yl)carbamate]",57.3
18,"O=C(NC1CCc2ccc(-c3cc(Cl)ccc3Cl)cc21)O[C@@H]1CN2CCC1CC2 (stereo partly drawn) [Example 46, (S)-quinuclidin-3-yl (6-(2,5-dichlorophenyl)-2,3-dihydro-1H-inden-1-yl)carbamate]",19.2
19,"O=C(NC1CCc2ccc(-c3ccc(Cl)c(Cl)c3)cc21)O[C@@H]1CN2CCC1CC2 (stereo partly drawn) [Example 47, (S)-quinuclidin-3-yl (6-(3,4-dichlorophenyl)-2,3-dihydro-1H-inden-1-yl)carbamate]",26.6
20,"O=C(NC1CCc2ccc(-c3cc(Cl)cc(Cl)c3)cc21)O[C@@H]1CN2CCC1CC2 (stereo partly drawn) [Example 48, (S)-quinuclidin-3-yl (6-(3,5-dichlorophenyl)-2,3-dihydro-1H-inden-1-yl)carbamate]",65.7
